# Test results reported in publication PMC5986646.
# Structures can show the parent of a compound that is named as a salt. Where two headings read alike, the source gives them in different places. Square brackets hold non-standard residues; d marks the D form. Peptide text beside a SMILES is read from it. dLac(3-vinyl) = C=CC[C@@H](O)C(=O)O; dHica = CC(C)C[C@@H](O)C(=O)O; NMeV = CN[C@H](C(=O)O)C(C)C; NMeA = CN[C@@H](C)C(=O)O; βAla = NCCC(=O)O
# Tests used:
# [1] = system: resistant sublines (HCT116/dtxA, HCT116/dtxB, HCT116/dtxE); experiment: JC-1 mitochondrial membrane depolarization; format: cell-based, human; details: each destruxin in its respective resistant subline, 48 h, JC-1, FACS
# Procedure: (§1) Parental and dtx-resistant cells were seeded (1x10^5 cells/well in 6-well plates) and treated on the following day for 48 h with the indicated concentrations of dtxA, dtxB or dtxE. Next, the mitochondrial membrane potential (ΔΨm) was measured. In doing so, cells were detached by trypsinization, centrifuged with 300× g for 5 min at 4°C and stained with the fluorescent dye JC-1 (5,5’,6,6’-tetrachloro-1,1’,3’,3’-tetraethyl-benzimidazolylcarbocyanine iodide) for 10 min at 37°C. FACS analysis was performed according to the manufacturer’s instructions (Mitochondrial Membrane Potential detection Kit; Stratagene, La Jolla, CA, USA). To further compare apoptotic changes in the parental and resistant cells, Annexin V-APC/PI stainings were carried out.
# HCT116/wt cells [2] = experiment: JC-1 mitochondrial membrane depolarization; format: cell-based, human; details: parental cells, 48 h, JC-1, FACS
# Procedure: as §1
# HCT116/dtxE cells [3] = experiment: Cell viability assay (MTT, EZ4U); format: cell-based, human; details: for relative resistance: mean IC50 HCT116/dtxE divided by IC50 HCT116/wt; for IC50: HCT116/dtxE, about one year of selection, MTT, mean (± SD), n ≥ 3
# HCT116/wt cells [4] = experiment: Annexin-V/PI staining (apoptosis/necrosis); format: cell-based, human; details: 48 h, 5 μM dtxA, 2.5 μM dtxB, dtxE around the IC50 value, FACS
# HCT116/dtxB cells = experiment: Cell viability assay (MTT, EZ4U); format: cell-based, human; details: for IC50: n ≥ 3
# HCT116/dtxA cells [5] = experiment: Cell viability assay (MTT, EZ4U); format: cell-based, human; details: for IC50: n ≥ 3
# HCT116/wt cells [6] = experiment: Cell viability assay (MTT, EZ4U); format: cell-based, human; details: mean (± SD) of at least three independent experiments in triplicates
# parental HCT116 = experiment: Cell viability, dtxA combined with mevalonate pathway inhibitors; format: cell-based, human; details: parental HCT116, inhibitor with dtxA, 72 h
# HCT116/dtxA cells [7] = experiment: Cell viability, dtxA combined with mevalonate pathway inhibitors, combination index; format: cell-based, human
# MCF7 = experiment: Cell viability, dtxA combined with mevalonate pathway inhibitors; format: cell-based, human; details: MCF7, intrinsically low sensitivity, inhibitor with dtxA, 72 h
# BT20 = experiment: as above; format: cell-based, human; details: BT20, intrinsically low sensitivity, inhibitor with dtxA, 72 h
# HCT116/wt cells [8] = experiment: Whole-cell patch clamp, ionophoric activity; format: cell-based, human; details: parental HCT116/wt, 20 μM dtxA, whole-cell mode, membrane potential -60 mV, RT
# Procedure: (§2) Ionophoric activity of dtxA, dtxB and dtxE was determined by patch clamp experiments, performed as previously described. Briefly, ionic currents were recorded in whole-cell mode at RT. Glass electrodes with a resistance less than 5 MΩ were pulled with a DMZ universal puller and filled with intracellular solution (120 mM CsF, 20 mM CsCl, 5 mM EGTA, 5 mM HEPES; pH 7.4). HCT116/wt or resistant cells were perfused with extracellular solution (140 mM NaCl, 4 mM KCl, 1.8 mM CaCl2, 0.75 mM MgCl2, 5 mM HEPES; pH 7.4) in a 1 mL chamber. After obtaining a whole-cell configuration, cells were allowed to equilibrate for 5 min before recording any currents and then pulsed to -60 mV for 10 sec pulses. Data were filtered at 5 kHz and digitized at 10 kHz by using digidata 1440A. Traces were averaged and subtracted from control recording, in the presence or absence of 20 μM dtxA, dtxB or dtxE, to observe ionophoric activity.
# HCT116/dtxA cells [9] = experiment: Whole-cell patch clamp, ionophoric activity; format: cell-based, human; details: resistant HCT116/dtxA, 20 μM dtxA, whole-cell mode, membrane potential -60 mV, RT
# Procedure: as §2
# HeLa cell derivative = system: HeLa cell derivative; parameters: method as in PMID 19517454; details: 18 months selection period of a HeLa cell derivative; cited from earlier work
# HCT116/dtxE cells [10] = details: 10 μM verapamil or 1 μM cyclosporin A with increasing dtxE
# [11] = HCT116/dtxB, about one year of selection, 72 h, MTT, mean (± SD)
# [12] = mean IC50 HCT116/dtxB divided by IC50 HCT116/wt
# [13] = mean IC50 HCT116/dtxA divided by IC50 HCT116/wt
# [14] = HCT116/dtxA, inhibitor 24 h pretreatment, then dtxA 72 h, statins at concentrations above 2.5 μM, Chou-Talalay, CalcuSyn, CI < 1 synergism
# [15] = HCT116/dtxA, about one year of selection, 72 h, MTT, mean (± SD)
structure (smiles),measurement,setting,value
"CC[C@H](C)[C@@H]1NC(=O)[C@@H]2CCCN2C(=O)[C@@H](CC(C)C)OC(=O)CCNC(=O)[C@H](C)N(C)C(=O)[C@H](C(C)C)N(C)C1=O [dtxB, destruxin B] (cyclo([dHica]PI[NMeV][NMeA][βAla]))",mitochondrial membrane depolarization,[1],no significant increase
same,mitochondrial membrane depolarization,HCT116/wt cells [2],only observed in parental cells
same,relative resistance,HCT116/dtxE cells [3],0.3 -fold
same,percentages of early and/or late apoptotic cells,HCT116/wt cells [4],markedly and significantly increased
same,IC50,"HCT116/dtxB cells; HCT116/dtxB (unsel.), removed from drug selection for one month, 72 h, mean",> 100000 nM
same,relative resistance,"HCT116/dtxB cells; HCT116/dtxB vs HCT116/wt, month 4 after selection start",4.4 -fold
same,relative resistance,"HCT116/dtxB cells; HCT116/dtxB vs HCT116/wt, month 6 after selection start",4.2 -fold
same,relative resistance,"HCT116/dtxB cells; HCT116/dtxB vs HCT116/wt, month 8 after selection start",> 25 -fold
same,relative resistance,"HCT116/dtxB cells; HCT116/dtxB vs HCT116/wt, month 12 after selection start",> 40 -fold
same,IC50,HCT116/dtxB cells; [11],> 100000 nM
same,relative resistance,HCT116/dtxB cells; [12],>40 -fold
same,relative resistance,HCT116/dtxA cells [5]; [13],18.2 -fold
CC[C@@]1(O)C(=O)OCc2c1cc1n(c2=O)Cc2cc3c(CN(C)C)c(O)ccc3nc2-1 [Topotecan],IC50,"HCT116/dtxE cells [3]; Homo sapiens, HCT-116, 72 h",25 nM
same,IC50,"HCT116/dtxB cells; Homo sapiens, HCT-116, HCT116/dtxB, about one year of selection, 72 h, MTT, mean (± SD)",8.2 nM
same,IC50,"HCT116/wt cells [6]; Homo sapiens, HCT-116, 72 h",27.4 nM
same,IC50,"HCT116/dtxA cells [5]; Homo sapiens, HCT-116, HCT116/dtxA, about one year of selection, 72 h, MTT, mean (± SD)",26 nM
"O=P(O)(O)C(O)(Cn1ccnc1)P(=O)(O)O [zoledronic acid, zoledronic acid monohydrate]",effect on cytotoxic activity of dtxA,parental HCT116,augmented
same,combination index (CI) in combination with dtxA,HCT116/dtxA cells [7],smaller than 1
same,effect on cytotoxic activity of dtxA,MCF7,augmented
same,effect on cytotoxic activity of dtxA,BT20,augmented
CC[C@]1(O)C[C@H]2CN(CCc3c([nH]c4ccccc34)[C@@](C(=O)OC)(c3cc4c(cc3OC)N(C=O)[C@H]3[C@@](O)(C(=O)OC)[C@H](OC(C)=O)[C@]5(CC)C=CCN6CC[C@]43[C@@H]65)C2)C1 [vincristine],cytotoxic activity compared to parental cells,"HCT116/dtxE cells [3]; HCT116/dtxE vs HCT116/wt, 72 h",significantly reduced cytotoxic activity
same,cytotoxic activity compared to parental cells (reduction),"HCT116/dtxB cells; HCT116/dtxB vs HCT116/wt, 72 h",very weak
same,cytotoxic activity compared to parental cells (reduction),"HCT116/dtxA cells [5]; HCT116/dtxA vs HCT116/wt, 72 h",absent
"CC[C@H](C)C(=O)O[C@H]1C[C@@H](C)C=C2C=C[C@H](C)[C@H](CC[C@@H]3C[C@@H](O)CC(=O)O3)[C@H]21 [lovastatin, lovastatin (Mevinolin)]",effect on cytotoxic activity of dtxA,parental HCT116,augmented
same,combination index (CI) in combination with dtxA,HCT116/dtxA cells [7]; [14],smaller than 1
O=c1[nH]cc(F)c(=O)[nH]1 [5-FU],IC50,HCT116/dtxE cells [3]; 72 h,34700 nM
same,IC50,HCT116/dtxB cells; [11],38900 nM
same,IC50,HCT116/wt cells [6]; 72 h,52000 nM
same,IC50,HCT116/dtxA cells [5]; [15],36400 nM
"CC(C)n1c(/C=C/C(O)CC(O)CC(=O)O)c(-c2ccc(F)cc2)c2ccccc21 (stereo not drawn) [fluvastatin, fluvastatin sodium salt hydrate]",effect on cytotoxic activity of dtxA,parental HCT116,augmented
same,combination index (CI) in combination with dtxA,HCT116/dtxA cells [7]; [14],smaller than 1
same,effect on cytotoxic activity of dtxA,MCF7,augmented
same,effect on cytotoxic activity of dtxA,BT20,augmented
"C=CC[C@H]1OC(=O)CCNC(=O)[C@H](C)N(C)C(=O)[C@H](C(C)C)N(C)C(=O)[C@H]([C@@H](C)CC)NC(=O)[C@@H]2CCCN2C1=O [dtxA, destruxin A] (cyclo([dLac(3-vinyl)]PI[NMeV][NMeA][βAla]))",mean total current (pore forming ability),HCT116/wt cells [8],-0.7 pA/ms
same,mean total current (pore forming ability),HCT116/dtxA cells [9],-0.2 pA/ms
same,mitochondrial membrane depolarization,[1],no significant increase
same,mitochondrial membrane depolarization,HCT116/wt cells [2],only observed in parental cells
same,relative resistance,HCT116/dtxE cells [3],0.3 -fold
same,percentages of early and/or late apoptotic cells,HCT116/wt cells [4],markedly and significantly increased
same,relative resistance,HCT116/dtxB cells; [12],21.8 -fold
same,IC50,"HCT116/dtxA cells [5]; HCT116/dtxA (unsel.), removed from drug selection for one month, 72 h, mean",> 100000 nM
same,relative resistance,"HCT116/dtxA cells [5]; HCT116/dtxA vs HCT116/wt, month 6 after selection start",3.5 -fold
same,relative resistance,"HCT116/dtxA cells [5]; HCT116/dtxA vs HCT116/wt, month 8 after selection start",> 20 -fold
same,IC50,HCT116/dtxA cells [5]; [15],> 100000 nM
same,relative resistance,HCT116/dtxA cells [5]; [13],>28.6 -fold
CC(C)[C@H]1OC(=O)[C@H](Cc2ccccc2)N(C)C(=O)[C@@H](C(C)C)OC(=O)[C@H](Cc2ccccc2)N(C)C(=O)[C@@H](C(C)C)OC(=O)[C@H](Cc2ccccc2)N(C)C1=O [Beauvericin],resistance obtained,HeLa cell derivative,no resistance
N.N.[Cl][Pt][Cl] [Cisplatin],IC50,HCT116/dtxE cells [3]; 72 h,4400 nM
same,IC50,HCT116/dtxB cells; [11],2200 nM
same,IC50,HCT116/wt cells [6]; 72 h,4000 nM
same,IC50,HCT116/dtxA cells [5]; [15],1900 nM
NC(=S)N/N=C/c1ncccc1N [Triapin],IC50,HCT116/dtxE cells [3]; 72 h,800 nM
same,IC50,HCT116/dtxB cells; [11],800 nM
same,IC50,HCT116/wt cells [6]; 72 h,800 nM
same,IC50,HCT116/dtxA cells [5]; [15],600 nM
Nc1ccn([C@@H]2O[C@H](CO)[C@@H](O)C2(F)F)c(=O)n1 [Gemcitabin],IC50,HCT116/dtxE cells [3]; 72 h,300 nM
same,IC50,HCT116/dtxB cells; [11],400 nM
same,IC50,HCT116/wt cells [6]; 72 h,400 nM
same,IC50,HCT116/dtxA cells [5]; [15],400 nM
COc1ccc(CCN(C)CCCC(C#N)(c2ccc(OC)c(OC)c2)C(C)C)cc1OC (stereo not drawn) [verapamil],sensitivity of HCT116/dtxE cells towards dtxE on co-incubation,HCT116/dtxE cells [10],partly restored
O=C1[O][Pt]2([NH][C@@H]3CCCC[C@H]3[NH]2)[O]C1=O [Oxaliplatin],IC50,HCT116/dtxE cells [3]; 72 h,400 nM
same,IC50,HCT116/dtxB cells; [11],1000 nM
same,IC50,HCT116/wt cells [6]; 72 h,800 nM
same,IC50,HCT116/dtxA cells [5]; [15],500 nM
